Data reported in patent publication US20260174875A1 (Novo Nordisk A/S, priority 2023, published 2026).

Assay: Chemical stability assessment in formulation (UPLC-UV-MS purity loss at 37° C.)
Assay type: physicochemical
Conditions: 8 mM phosphate buffer pH 7.4, 1 mg/mL, 2 weeks
Method: The assay was performed to investigate the extend of chemical degradation in vitro over time upon incubation at 37° C. for a period of 2 weeks.
Peptide solutions were prepared by dissolving freeze-dried powder in 8 mM phosphate buffer pH 7.4 to a target of 1 mg/mL. The pH of peptide solutions was adjusted to 7.4 with 0.02 M HCl or 0.02 M NaOH. Samples were filled in Agilent HPLC vials with fixed insert. Vials were capped to prevent evaporation. The HPLC vials were incubated at 37° C. and samples were withdrawn at different time points over a period of 2 weeks, flash frozen at −80° C., and stored at −20° C. until analysis.
A flow-rate of 100 μL/min was delivered with a Binary solvent manager pump having 0.1% formic acid in water as solvent A and 0.1% formic acid in acetonitrile as solvent B. Gradient elution was carried out using 20% B from 0 to 2 min followed by 20 to 50% B from 2 to 20 min in a total run time of 30 min.

CC[C@H](C)[C@H](NC(=O)[C@H](CCC(=O)O)NC(=O)[C@H](CCC(=O)O)NC(=O)[C@H](CC(C)C)NC(=O)[C@H](CC(C)C)NC(=O)[C@@H](NC(=O)[C@H](CO)NC(=O)[C@H](Cc1ccc(O)cc1)NC(=O)[C@H](CC(=O)O)NC(=O)[C@H](CO)NC(=O)[C@@H](NC(=O)[C@H](Cc1ccccc1)NC(=O)[C@@H](NC(=O)CNC(=O)[C@H](CCC(=O)O)NC(=O)C(C)(C)NC(=O)[C@@H](N)Cc1ccc(O)cc1)[C@@H](C)O)[C@@H](C)O)[C@@H](C)CC)C(=O)N[C@@H](C)C(=O)N[C@@H](C)C(=O)N[C@@H](CCCNC(=N)N)C(=O)N[C@@H](CCC(=O)O)C(=O)N[C@@H](Cc1ccccc1)C(=O)N[C@H](C(=O)N[C@@H](CCC(=O)O)C(=O)N[C@@H](Cc1c[nH]c2ccccc12)C(=O)N[C@@H](CC(C)C)C(=O)N[C@@H](CC(C)C)C(=O)N[C@@H](C)C(=O)NCC(=O)NCC(=O)N1CCC[C@H]1C(=O)N[C@@H](CO)C(=O)N[C@@H](CO)C(=O)NCC(=O)N[C@@H](C)C(=O)NCC(=O)N[C@@H](C)C(=O)N[C@@H](CO)C(=O)N[C@@H](CCC(N)=O)C(=O)N[C@@H](CC(C)C)C(=O)N[C@@H](CO)C(=O)N[C@H](C(=O)N[C@@H](C)C(=O)N[C@@H](CCC(N)=O)C(=O)N[C@H](C(=O)N[C@@H](CCC(N)=O)C(=O)N[C@@H](CCCNC(=N)N)C(=O)N[C@@H](CC(C)C)C(=O)N[C@@H](CO)C(=O)N[C@@H](C)C(=O)N[C@@H](CCC(=O)O)C(=O)N[C@@H](CC(C)C)C(=O)N[C@@H](Cc1c[nH]cn1)C(=O)N[C@@H](CCCCNC(=O)COCCOCCNC(=O)COCCOCCNC(=O)CC[C@H](NC(=O)CCCCCCCCCCCCCCCCCCC(=O)O)C(=O)O)C(=O)N[C@@H](CC(C)C)C(=O)N[C@@H](C)C(=O)N[C@H](C(=O)N[C@@H](CCC(=O)O)C(=O)N1CCC[C@H]1C(=O)N[C@@H](CCCNC(=N)N)C(=O)N[C@H](C(=O)N[C@@H](CCC(=O)O)C(=O)N[C@H](C(=O)NCC(=O)N[C@@H](CO)C(=O)NCC(=O)N[C@@H](CO)C(=O)N1CCC[C@H]1C(N)=O)[C@@H](C)O)[C@@H](C)O)[C@@H](C)O)[C@@H](C)O)[C@@H](C)O)[C@@H](C)CC [Compound 180]
Purity loss per week at 37° C.: 0.7%

CC[C@H](C)[C@H](NC(=O)[C@H](CCC(=O)O)NC(=O)[C@H](CCC(=O)O)NC(=O)[C@H](CC(C)C)NC(=O)[C@H](CC(C)C)NC(=O)[C@H](CCCCNC(=O)COCCOCCNC(=O)COCCOCCNC(=O)CC[C@H](NC(=O)CCCCCCCCCCCCCCCCCCC(=O)O)C(=O)O)NC(=O)[C@H](CO)NC(=O)[C@H](Cc1ccc(O)cc1)NC(=O)[C@H](CC(=O)O)NC(=O)[C@H](CO)NC(=O)[C@@H](NC(=O)[C@H](Cc1ccccc1)NC(=O)[C@@H](NC(=O)CNC(=O)[C@H](CCC(=O)O)NC(=O)C(C)(C)NC(=O)[C@@H](N)Cc1ccc(O)cc1)[C@@H](C)O)[C@@H](C)O)C(=O)N[C@@H](C)C(=O)N[C@@H](C)C(=O)N[C@@H](CCCNC(=N)N)C(=O)N[C@@H](CCC(=O)O)C(=O)N[C@@H](Cc1ccccc1)C(=O)N[C@H](C(=O)N[C@@H](CCC(=O)O)C(=O)N[C@@H](Cc1c[nH]c2ccccc12)C(=O)N[C@@H](CC(C)C)C(=O)N[C@@H](CC(C)C)C(=O)N[C@@H](C)C(=O)NCC(=O)NCC(=O)N1CCC[C@H]1C(=O)N[C@@H](CO)C(=O)N[C@@H](CO)C(=O)NCC(=O)N[C@@H](C)C(=O)NCC(=O)N[C@@H](CCC(N)=O)C(=O)N[C@@H](C)C(=O)N1CCC[C@H]1C(=O)NCC(=O)N[C@@H](CCC(=O)O)C(=O)N[C@@H](C)C(=O)N1CCC[C@H]1C(=O)NCC(=O)N[C@@H](C)C(=O)N[C@@H](CO)C(=O)N[C@@H](CCC(=O)O)C(=O)N[C@@H](CC(C)C)C(=O)N[C@@H](CO)C(=O)N[C@H](C(=O)N[C@@H](C)C(=O)N[C@@H](C)C(=O)N[C@@H](CC(C)C)C(=O)NCC(=O)N[C@@H](CCCNC(=N)N)C(=O)N[C@@H](CC(C)C)C(=O)N[C@@H](CO)C(=O)N[C@@H](C)C(=O)N[C@@H](CCC(=O)O)C(=O)N[C@@H](CC(C)C)C(=O)N[C@@H](Cc1c[nH]cn1)C(=O)N[C@@H](CCC(N)=O)C(=O)N[C@@H](CC(C)C)C(=O)N[C@@H](C)C(=O)N[C@H](C(=O)N[C@@H](CC(C)C)C(=O)N1CCC[C@H]1C(=O)N[C@@H](CCCNC(=N)N)C(=O)N[C@H](C(=O)N[C@@H](CCC(=O)O)C(=O)N[C@H](C(=O)NCC(=O)N[C@@H](CO)C(=O)NCC(=O)N[C@@H](CO)C(=O)N1CCC[C@H]1C(N)=O)[C@@H](C)O)[C@@H](C)O)[C@@H](C)O)[C@@H](C)O)[C@@H](C)CC [Compound 171]
Purity loss per week at 37° C.: 1.0%

CC[C@H](C)[C@H](NC(=O)[C@H](CCC(=O)O)NC(=O)[C@H](CCC(=O)O)NC(=O)[C@H](CC(C)C)NC(=O)[C@H](CC(C)C)NC(=O)[C@@H](NC(=O)[C@H](CO)NC(=O)[C@H](Cc1ccc(O)cc1)NC(=O)[C@H](CC(=O)O)NC(=O)[C@H](CO)NC(=O)[C@@H](NC(=O)[C@H](Cc1ccccc1)NC(=O)[C@@H](NC(=O)CNC(=O)[C@H](CCC(=O)O)NC(=O)C(C)(C)NC(=O)[C@@H](N)Cc1ccc(O)cc1)[C@@H](C)O)[C@@H](C)O)[C@@H](C)CC)C(=O)N[C@@H](C)C(=O)N[C@@H](C)C(=O)N[C@@H](CCCNC(=N)N)C(=O)N[C@@H](CCC(=O)O)C(=O)N[C@@H](Cc1ccccc1)C(=O)N[C@H](C(=O)N[C@@H](CCC(=O)O)C(=O)N[C@@H](Cc1c[nH]c2ccccc12)C(=O)N[C@@H](CC(C)C)C(=O)N[C@@H](CC(C)C)C(=O)N[C@@H](C)C(=O)NCC(=O)NCC(=O)N1CCC[C@H]1C(=O)N[C@@H](CO)C(=O)N[C@@H](CO)C(=O)NCC(=O)N[C@@H](CCC(=O)O)C(=O)NCC(=O)N[C@@H](CCC(N)=O)C(=O)N[C@@H](C)C(=O)N1CCC[C@H]1C(=O)NCC(=O)N[C@@H](CCC(N)=O)C(=O)N[C@@H](C)C(=O)N1CCC[C@H]1C(=O)NCC(=O)N[C@@H](C)C(=O)N[C@@H](CO)C(=O)N[C@@H](Cc1c[nH]cn1)C(=O)N[C@@H](CC(C)C)C(=O)N[C@@H](CO)C(=O)N[C@H](C(=O)N[C@@H](C)C(=O)N[C@@H](CCC(N)=O)C(=O)N[C@H](C(=O)N[C@@H](CCC(N)=O)C(=O)N[C@@H](CCCNC(=N)N)C(=O)N[C@@H](CC(C)C)C(=O)N[C@@H](CO)C(=O)N[C@@H](C)C(=O)N[C@@H](CCC(=O)O)C(=O)N[C@@H](CC(C)C)C(=O)N[C@@H](Cc1c[nH]cn1)C(=O)N[C@@H](CCCCNC(=O)COCCOCCNC(=O)COCCOCCNC(=O)CC[C@H](NC(=O)CCCCCCCCCCCCCCCCCCC(=O)O)C(=O)O)C(=O)N[C@@H](CC(C)C)C(=O)N[C@@H](C)C(=O)N[C@H](C(=O)N[C@@H](CC(C)C)C(=O)N1CCC[C@H]1C(=O)N[C@@H](CCCNC(=N)N)C(=O)N[C@H](C(=O)N[C@@H](CCC(=O)O)C(=O)N[C@H](C(=O)NCC(=O)N[C@@H](CO)C(=O)NCC(=O)N[C@@H](CO)C(=O)N1CCC[C@H]1C(N)=O)[C@@H](C)O)[C@@H](C)O)[C@@H](C)O)[C@@H](C)O)[C@@H](C)O)[C@@H](C)CC [Compound 147]
Purity loss per week at 37° C.: 1.0%

CC[C@H](C)[C@H](NC(=O)[C@H](CCC(=O)O)NC(=O)[C@H](CCC(=O)O)NC(=O)[C@H](CC(C)C)NC(=O)[C@H](CC(C)C)NC(=O)[C@H](CCCCNC(=O)COCCOCCNC(=O)COCCOCCNC(=O)CC[C@H](NC(=O)CCCCCCCCCCCCCCCCCCC(=O)O)C(=O)O)NC(=O)[C@H](CO)NC(=O)[C@H](Cc1ccc(O)cc1)NC(=O)[C@H](CC(=O)O)NC(=O)[C@H](CO)NC(=O)[C@@H](NC(=O)[C@H](Cc1ccccc1)NC(=O)[C@@H](NC(=O)CNC(=O)[C@H](CCC(=O)O)NC(=O)C(C)(C)NC(=O)[C@@H](N)Cc1ccc(O)cc1)[C@@H](C)O)[C@@H](C)O)C(=O)N[C@@H](C)C(=O)N[C@@H](C)C(=O)N[C@@H](CCCNC(=N)N)C(=O)N[C@@H](CCC(=O)O)C(=O)N[C@@H](Cc1ccccc1)C(=O)N[C@H](C(=O)N[C@@H](CCC(=O)O)C(=O)N[C@@H](Cc1c[nH]c2ccccc12)C(=O)N[C@@H](CC(C)C)C(=O)N[C@@H](CC(C)C)C(=O)N[C@@H](C)C(=O)NCC(=O)NCC(=O)N1CCC[C@H]1C(=O)N[C@@H](CO)C(=O)N[C@@H](CO)C(=O)NCC(=O)N[C@@H](C)C(=O)NCC(=O)N[C@@H](C)C(=O)N[C@@H](CO)C(=O)N[C@@H](Cc1c[nH]cn1)C(=O)N[C@@H](CC(C)C)C(=O)N[C@@H](CO)C(=O)N[C@H](C(=O)N[C@@H](C)C(=O)N[C@@H](CCC(N)=O)C(=O)N[C@@H](CC(C)C)C(=O)NCC(=O)N[C@@H](CCCNC(=N)N)C(=O)N[C@@H](CC(C)C)C(=O)N[C@@H](CO)C(=O)N[C@@H](C)C(=O)N[C@@H](CCC(=O)O)C(=O)N[C@@H](CC(C)C)C(=O)N[C@@H](Cc1c[nH]cn1)C(=O)N[C@@H](CCC(N)=O)C(=O)N[C@@H](CC(C)C)C(=O)N[C@@H](C)C(=O)N[C@H](C(=O)N[C@@H](CCC(=O)O)C(=O)N1CCC[C@H]1C(=O)N[C@@H](CCCNC(=N)N)C(=O)N[C@H](C(=O)N[C@@H](CCC(=O)O)C(=O)N[C@H](C(=O)NCC(=O)N[C@@H](CO)C(=O)NCC(=O)N[C@@H](CO)C(=O)N1CCC[C@H]1C(N)=O)[C@@H](C)O)[C@@H](C)O)[C@@H](C)O)[C@@H](C)O)[C@@H](C)CC [Compound 184]
Purity loss per week at 37° C.: 1.0%
